Test results from patent publication US20240238423A9, “TETRAHYDROISOQUINOLINE HETEROBIFUNCTIONAL BCL-XL DEGRADERS” (Treeline Biosciences, Inc., priority 2022, published 2024).
Like-named read-outs stand apart in the source and are kept apart here.

Molecular target: T1, Human BCL-XL protein (N-terminal HiBiT tagged BCL-XL in HT1080 cells) (Homo sapiens, UniProt Q07817)
T1 construct: expressed in transfected cells; host or cells: HT-1080 (ATCC CCL-121), stably transduced with lentivirus pLV-UBC-N-HiBiT-BCL-XL-PGK-puro and selected with puromycin
T1 sequence (Q07817 whole entry): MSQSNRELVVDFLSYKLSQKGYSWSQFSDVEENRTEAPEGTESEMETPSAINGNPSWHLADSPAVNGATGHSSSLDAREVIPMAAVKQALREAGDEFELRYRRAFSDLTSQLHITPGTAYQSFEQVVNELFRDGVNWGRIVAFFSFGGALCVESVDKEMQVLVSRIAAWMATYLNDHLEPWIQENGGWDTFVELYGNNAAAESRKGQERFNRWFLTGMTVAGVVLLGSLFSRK
Test: HiBiT based degradation assay
Assay type: cell-based
Settings: HT1080 cells expressing HiBiT-BCL-XL; for DC50: BCL-XL degradation
Description: Human BCL-XL protein coding open reading frame fused with N-terminal HiBiT coding sequence was synthesized from Integrated DNA Technologies (IDT). Next, N-HiBiT-BCL-XL sequence was cloned into pLV-UBC-PGK-Puro, a lentivirus plasmid purchased from Vectorbuilder, to generate pLV-UBC-N-HiBiT-BCL-XL-PGK-puro. Lentiviral particles were generated from Lenti-X™ 293T cells (Clontech) by co-transfection of pLV-UBC-N-HiBiT-BCL-XL-PGK-puro plasmids and lentiviral packaging plasmid mix (Cellecta). HT-1080 [HT1080](ATCC CCL-121) cells were infected with the lentivirus, and HT1080 cells stably integrated with the lentiviral vectors were established by incubation with 1 μg/mL puromycin (Thermofisher).
HT1080 cells expressing N-terminal HiBiT tagged BCL-XL were dispensed into a 384-well plate pre-spotted with compounds at varying concentrations. Three thousand cells were seeded into each well in 40 μL of RPMI 1640 media. […] After incubation, luminescence was read on a PHERAstar FSX Plate Reader (BMG). BCL-XL degradation at each indicated concentration was normalized with the DMSO control. The BCL-XL degradation curves were plotted using a four-parameter logistic model. For compounds displaying hook effects, the curve fitting was performed using the bottom point of the hook curves (i.e., the point of Ymin) as the bottom plateau to calculate EC50.

[1] = BCL-XL degradation normalized with DMSO control, 24 h

SMILES | Ymin (24 h) [1] | DC50 (24 h, read-out: EC50 (24 h)) | Ymin (6 h) (BCL-XL degradation normalized with DMSO control, 6 h) | DC50 (6 h, read-out: EC50 (6 h))
Cc1cc(OCC[C@@H](C)C2CCN(CC(=O)Nc3ccc4c(C5CCC(=O)NC5=O)nn(C)c4c3)CC2)ccc1-c1ccc(N2CCc3cccc(C(=O)Nc4nc5ccccc5s4)c3C2)nc1C(=O)O (single isomer, unassigned) [Compound 266a] | A (Ymin < 50%) | < 0.1 µM | – | –
Cc1cc(OC[C@H](C)CC2CCN(CC(=O)Nc3ccc4c(C5CCC(=O)NC5=O)nn(C)c4c3)CC2)ccc1-c1ccc(N2CCc3cccc(C(=O)Nc4nc5ccccc5s4)c3C2)nc1C(=O)O (single isomer, unassigned) [Compound 271a] | A (Ymin < 50%) | < 0.1 µM | – | –
Cc1c(O[C@H]2CC[C@H](CC[C@H](C)N3CCN(c4ccc5c(C6CCC(=O)NC6=O)nn(C)c5c4)CC3)CC2)cccc1-c1ccc(N2CCc3cccc(C(=O)Nc4nc5ccccc5s4)c3C2)nc1C(=O)O (single isomer, unassigned) [Compound 281a] | A (Ymin < 50%) | < 0.1 µM | – | –
Cc1c(O[C@H]2CC[C@H](CC[C@@H](C)N3CCN(c4ccc5c(C6CCC(=O)NC6=O)nn(C)c5c4)CC3)CC2)cccc1-c1ccc(N2CCc3cccc(C(=O)Nc4nc5ccccc5s4)c3C2)nc1C(=O)O (single isomer, unassigned) [Compound 281b] | A (Ymin < 50%) | < 0.1 µM | – | –
Cc1c(O[C@H]2CC[C@H](C[C@@H](C)CN3CCN(c4ccc5c(C6CCC(=O)NC6=O)nn(C)c5c4)CC3)CC2)cccc1-c1ccc(N2CCc3cccc(C(=O)Nc4nc5ccccc5s4)c3C2)nc1C(=O)O (single isomer, unassigned) [Compound 282a] | A (Ymin < 50%) | < 0.1 µM | – | –
Cc1c(O[C@H]2CC[C@H](C[C@H](C)CN3CCN(c4ccc5c(C6CCC(=O)NC6=O)nn(C)c5c4)CC3)CC2)cccc1-c1ccc(N2CCc3cccc(C(=O)Nc4nc5ccccc5s4)c3C2)nc1C(=O)O (single isomer, unassigned) [Compound 282b, 6-(8-(benzo[d]thiazol-2-ylcarbamoyl)-3,4-dihydroisoquinolin-2(1H)-yl)-3-(3-(((1S,4r)-4-((2S*)-3-(4-(3-(2,6-dioxopiperidin-3-yl)-1-methyl-1H-indazol-6-yl)piperazin-1-yl)-2-methylpropyl)cyclohexyl)oxy)-2-methylphenyl)picolinic acid] | A (Ymin < 50%) | < 0.1 µM | – | –
Cc1c(O[C@H]2CC[C@H](CC[C@H](C)N3CCN(c4cccc5c(C6CCC(=O)NC6=O)nn(C)c45)CC3)CC2)cccc1-c1ccc(N2CCc3cccc(C(=O)Nc4nc5ccccc5s4)c3C2)nc1C(=O)O (single isomer, unassigned) [Compound 283a] | A (Ymin < 50%) | < 0.1 µM | – | –
Cc1c(O[C@H]2CC[C@H](CC[C@@H](C)N3CCN(c4cccc5c(C6CCC(=O)NC6=O)nn(C)c45)CC3)CC2)cccc1-c1ccc(N2CCc3cccc(C(=O)Nc4nc5ccccc5s4)c3C2)nc1C(=O)O (single isomer, unassigned) [Compound 283b] | A (Ymin < 50%) | < 0.1 µM | – | –
Cc1c(O[C@H]2CC[C@H](C[C@H](C)CN3CCN(c4cccc5c(C6CCC(=O)NC6=O)nn(C)c45)CC3)CC2)cccc1-c1ccc(N2CCc3cccc(C(=O)Nc4nc5ccccc5s4)c3C2)nc1C(=O)O (single isomer, unassigned) [Compound 284a] | A (Ymin < 50%) | < 0.1 µM | – | –
Cc1c(O[C@H]2CC[C@H](C[C@@H](C)CN3CCN(c4cccc5c(C6CCC(=O)NC6=O)nn(C)c45)CC3)CC2)cccc1-c1ccc(N2CCc3cccc(C(=O)Nc4nc5ccccc5s4)c3C2)nc1C(=O)O (single isomer, unassigned) [Compound 284b, 6-(8-(benzo[d]thiazol-2-ylcarbamoyl)-3,4-dihydroisoquinolin-2(1H)-yl)-3-(3-(((1R,4r)-4-((2R*)-3-(4-(3-(2,6-dioxopiperidin-3-yl)-1-methyl-1H-indazol-7-yl)piperazin-1-yl)-2-methylpropyl)cyclohexyl)oxy)-2-methylphenyl)picolinic acid] | A (Ymin < 50%) | < 0.1 µM | – | –
Cc1c(O[C@H]2CC[C@H](C[C@H](C)CCN3CCN(c4ccc5c(C6CCC(=O)NC6=O)nn(C)c5c4)CC3)CC2)cccc1-c1ccc(N2CCc3cccc(C(=O)Nc4nc5ccccc5s4)c3C2)nc1C(=O)O (single isomer, unassigned) [Compound 307a] | A (Ymin < 50%) | < 0.1 µM | – | –
Cc1c(O[C@H]2CC[C@H](C[C@@H](C)CCN3CCN(c4ccc5c(C6CCC(=O)NC6=O)nn(C)c5c4)CC3)CC2)cccc1-c1ccc(N2CCc3cccc(C(=O)Nc4nc5ccccc5s4)c3C2)nc1C(=O)O (single isomer, unassigned) [Compound 307b] | A (Ymin < 50%) | < 0.1 µM | – | –
Cc1c(O[C@H]2CC[C@H](CC[C@@H](C)CN3CCN(c4ccc5c(C6CCC(=O)NC6=O)nn(C)c5c4)CC3)CC2)cccc1-c1ccc(N2CCc3cccc(C(=O)Nc4nc5ccccc5s4)c3C2)nc1C(=O)O (single isomer, unassigned) [Compound 308a] | A (Ymin < 50%) | < 0.1 µM | – | –

Results, then the compound that gave them:

Ymin (24 h) [1] | DC50 (24 h, read-out: EC50 (24 h)) | Ymin (6 h) (BCL-XL degradation normalized with DMSO control, 6 h) | DC50 (6 h, read-out: EC50 (6 h)) | SMILES
B (50% ≤ Ymin < 70%) | < 0.1 µM | – | – | Cc1c(OCCC[C@@H]2CCCN(CC(=O)Nc3cccc4c(C5CCC(=O)NC5=O)nn(C)c34)C2)cccc1-c1ccc(N2CCc3cccc(C(=O)Nc4nc5ccccc5s4)c3C2)nc1C(=O)O (single isomer, unassigned) [Compound 210a]
C (Ymin ≥ 70%) | < 0.1 µM | C (Ymin ≥ 70%) | 1 to 10 µM | Cc1c(OCCC[C@H]2CCCN(CC(=O)Nc3cccc4c(C5CCC(=O)NC5=O)nn(C)c34)C2)cccc1-c1ccc(N2CCc3cccc(C(=O)Nc4nc5ccccc5s4)c3C2)nc1C(=O)O (single isomer, unassigned) [Compound 210b]
A (Ymin < 50%) | < 0.1 µM | – | – | Cc1c(OC[C@H]2CCC3(CCN(CC(=O)Nc4ccc5c(C6CCC(=O)NC6=O)nn(C)c5c4)CC3)C2)cccc1-c1ccc(N2CCc3cccc(C(=O)Nc4nc5ccccc5s4)c3C2)nc1C(=O)O (single isomer, unassigned) [Compound 262a]
A (Ymin < 50%) | < 0.1 µM | – | – | Cc1c(OC[C@@H]2CCC3(CCN(CC(=O)Nc4ccc5c(C6CCC(=O)NC6=O)nn(C)c5c4)CC3)C2)cccc1-c1ccc(N2CCc3cccc(C(=O)Nc4nc5ccccc5s4)c3C2)nc1C(=O)O (single isomer, unassigned) [Compound 262b]
B (50% ≤ Ymin < 70%) | < 0.1 µM | – | – | Cc1c(OC[C@H](C)CC2CCN(CC(=O)Nc3ccc4c(C5CCC(=O)NC5=O)nn(C)c4c3)CC2)cccc1-c1ccc(N2CCc3cccc(C(=O)Nc4nc5ccccc5s4)c3C2)nc1C(=O)O (single isomer, unassigned) [Compound 263a]
A (Ymin < 50%) | < 0.1 µM | – | – | Cc1c(OC[C@@H](C)CC2CCN(CC(=O)Nc3ccc4c(C5CCC(=O)NC5=O)nn(C)c4c3)CC2)cccc1-c1ccc(N2CCc3cccc(C(=O)Nc4nc5ccccc5s4)c3C2)nc1C(=O)O (single isomer, unassigned) [Compound 263b]
A (Ymin < 50%) | < 0.1 µM | – | – | Cc1cc(OCC[C@H](C)C2CCN(CC(=O)Nc3ccc4c(C5CCC(=O)NC5=O)nn(C)c4c3)CC2)ccc1-c1ccc(N2CCc3cccc(C(=O)Nc4nc5ccccc5s4)c3C2)nc1C(=O)O (single isomer, unassigned) [Compound 266b]
A (Ymin < 50%) | < 0.1 µM | – | – | Cc1c(O[C@H]2CCC3(CCN(CC(=O)Nc4ccc5c(C6CCC(=O)NC6=O)nn(C)c5c4)CC3)C2)cccc1-c1ccc(N2CCc3cccc(C(=O)Nc4nc5ccccc5s4)c3C2)nc1C(=O)O (single isomer, unassigned) [Compound 268a]
A (Ymin < 50%) | < 0.1 µM | – | – | Cc1c(O[C@@H]2CCC3(CCN(CC(=O)Nc4ccc5c(C6CCC(=O)NC6=O)nn(C)c5c4)CC3)C2)cccc1-c1ccc(N2CCc3cccc(C(=O)Nc4nc5ccccc5s4)c3C2)nc1C(=O)O (single isomer, unassigned) [Compound 268b]
A (Ymin < 50%) | < 0.1 µM | – | – | Cc1c(OCC[C@@H]2CCC3(CCN(CC(=O)Nc4ccc5c(C6CCC(=O)NC6=O)nn(C)c5c4)CC3)C2)cccc1-c1ccc(N2CCc3cccc(C(=O)Nc4nc5ccccc5s4)c3C2)nc1C(=O)O (single isomer, unassigned) [Compound 272b, 6-(8-(benzo[d]thiazol-2-ylcarbamoyl)-3,4-dihydro-isoquinolin-2(1 h)-yl)-3-(3-(2-((2r)-8-(2-((3-(2,6-dioxopiperidin-3-yl)-1-methyl-1 h-indazol-6-yl)amino)-2-oxoethyl)-8-azaspiro[4.5]decan-2-yl)ethoxy)-2-methylphenyl)picolinic acid]
A (Ymin < 50%) | < 0.1 µM | – | – | Cc1c(OCC[C@@H]2CC23CCN(CC(=O)Nc2ccc4c(C5CCC(=O)NC5=O)nn(C)c4c2)CC3)cccc1-c1ccc(N2CCc3cccc(C(=O)Nc4nc5ccccc5s4)c3C2)nc1C(=O)O (single isomer, unassigned) [Compound 289a]
